Data from publication PMC6230509 (Neuropharmacology, 2018).
pKi: −log10 of the molar value.

Target: T1, α2C (Homo sapiens, UniProt P18825)
T1 sequence (P18825 1-462): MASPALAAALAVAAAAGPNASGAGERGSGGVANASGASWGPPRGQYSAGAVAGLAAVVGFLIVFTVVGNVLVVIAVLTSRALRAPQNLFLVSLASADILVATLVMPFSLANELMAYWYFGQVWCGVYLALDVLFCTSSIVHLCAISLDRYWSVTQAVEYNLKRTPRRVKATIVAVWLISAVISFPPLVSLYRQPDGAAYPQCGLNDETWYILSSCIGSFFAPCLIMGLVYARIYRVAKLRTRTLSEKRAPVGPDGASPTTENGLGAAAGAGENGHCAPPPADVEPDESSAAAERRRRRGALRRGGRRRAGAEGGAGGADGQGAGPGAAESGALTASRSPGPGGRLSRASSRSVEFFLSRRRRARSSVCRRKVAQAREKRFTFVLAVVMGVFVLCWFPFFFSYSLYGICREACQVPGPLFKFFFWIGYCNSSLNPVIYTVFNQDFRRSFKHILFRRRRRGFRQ
Test: NIMH PDSP radioligand competition binding, α2C

Row | Structure (SMILES) | pKi
1 | C=CCN(CC=C)CCc1c[nH]c2cccc(OC(C)=O)c12 [4-AcO-DALT, 4-acetoxy-N,N-diallyltryptamine] | 6.13
2 | C=CCN(CC=C)CCc1c(C)[nH]c2ccc(OC)cc12 [5-MeO-2-Me-DALT, 5-methoxy-2-methyl-N,N-diallyltryptamine] | 6.05
3 | C=CCN(CC=C)CCc1c(C)[nH]c2ccc(F)cc12 [5-F-2-Me-DALT, 5-fluoro-2-methyl-N,N-diallyltryptamine] | 6.74
4 | C=CCN(CC=C)CCc1c[nH]c2c(CC)cccc12 [7-Et-DALT, 7-ethyl-N,N-diallyltryptamine] | 6.17
5 | C=CCN(CC=C)CCc1c[nH]c2cccc(O)c12 [4-HO-DALT, 4-hydroxy-N,N-diallyltryptamine] | < 5.00
6 | C=CCN(CC=C)CCc1c(-c2ccccc2)[nH]c2ccccc12 [2-Ph-DALT, 2-phenyl-N,N-diallyltryptamine] | 6.80
